From the supplement of paper PMC10307832

Compound: CN(C)C(=N)NC(=N)N [Metformin] + O=C(c1cc(Cc2n[nH]c(=O)c3ccccc23)ccc1F)N1CCN(C(=O)C2CC2)CC1 [Olaparib] (partner 8 µM)
Test: relative viability (nuclei count vs DMSO), 5 days (fraction); higher = more cells survive
Conditions: first compound 10 µM
Summary of the method: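 Nuclei were stained with Hoechst during a one-step fixation (final 0.05% Triton X-100, 1% formaldehyde, 1 ug/ml Hoechst) carried out 5 days after dosing, then counted on 4× images. The cells, lung cancer lines in 1536-well plates, had been dosed by pin tool the day after seeding with one drug alone or a fixed anchor-drug dose plus five library-drug doses (not always all listed) in √10 steps. Relative viability is the nuclei count in treated wells divided by that in vehicle wells, and each value is the median of duplicate plates.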

Question: For SW 900, which relative viability is on record?
Answer: 0.853

Question: With SW 1573 as the cell line, how does the relative viability read?
Answer: 0.441

Question: How did the relative viability turn out when UMC-11 was run?
Answer: 0.337

Same assay, conditions: first compound 31.62 µM

Question: How did the relative viability turn out when 201T was run?
Answer: 0.802

Question: With A549 as the cell line, how does the relative viability read?
Answer: 0.308

Question: With A-427 as the cell line, how does the relative viability read?
Answer: 0.773

Question: For ABC-1, which relative viability is on record?
Answer: 0.817

Question: With BEN as the cell line, how does the relative viability read?
Answer: 1.18

Question: CAL-12T was tested. Which relative viability did it give?
Answer: 0.661

Question: Which relative viability does the source give for COR-L23 here?
Answer: 0.3

Question: Which relative viability does the source give for COR-L 105 here?
Answer: 0.625

Question: Calu-6 was tested. Which relative viability did it give?
Answer: 0.416

Question: For ChaGo-K-1, which relative viability is on record?
Answer: 0.343

Question: For EBC-1, which relative viability is on record?
Answer: 0.733

Question: How did the relative viability turn out when EKVX was run?
Answer: 0.729

Question: How did the relative viability turn out when EMC-BAC-2 was run?
Answer: 0.394

Question: Which relative viability does the source give for EPLC-272H here?
Answer: 0.769

Question: H3255 was tested. Which relative viability did it give?
Answer: 0.594

Question: With HARA as the cell line, how does the relative viability read?
Answer: 0.81

Question: How did the relative viability turn out when HCC-15 was run?
Answer: 0.615

Question: HCC-44 was tested. Which relative viability did it give?
Answer: 0.893

Question: Which relative viability does the source give for HCC-78 here?
Answer: 1.01

Question: With HCC-366 as the cell line, how does the relative viability read?
Answer: 0.21

Question: Which relative viability does the source give for HCC-827 here?
Answer: 0.366

Question: For HOP-62, which relative viability is on record?
Answer: 0.2

Question: Which relative viability does the source give for IA-LM here?
Answer: 0.94

Question: LC-2-ad was tested. Which relative viability did it give?
Answer: 0.537

Question: How did the relative viability turn out when NCI-H520 was run?
Answer: 0.264

Question: With NCI-H522 as the cell line, how does the relative viability read?
Answer: 0.752

Question: How did the relative viability turn out when NCI-H661 was run?
Answer: 0.718

Question: Which relative viability does the source give for NCI-H1299 here?
Answer: 0.924

Question: NCI-H1648 was tested. Which relative viability did it give?
Answer: 1.14

Question: NCI-H1650 was tested. Which relative viability did it give?
Answer: 0.625

Question: NCI-H1703 was tested. Which relative viability did it give?
Answer: 0.71

Question: With NCI-H2009 as the cell line, how does the relative viability read?
Answer: 0.69

Question: How did the relative viability turn out when NCI-H2023 was run?
Answer: 0.366

Question: How did the relative viability turn out when NCI-H2228 was run?
Answer: 0.344

Question: With NCI-H2342 as the cell line, how does the relative viability read?
Answer: 0.375

Question: For SK-LU-1, which relative viability is on record?
Answer: 0.375

Question: With SK-MES-1 as the cell line, how does the relative viability read?
Answer: 0.352

Question: Which relative viability does the source give for SW 900 here?
Answer: 0.945

Question: For SW 1573, which relative viability is on record?
Answer: 0.468

Question: Which relative viability does the source give for UMC-11 here?
Answer: 0.269

Same assay, conditions: first compound 100 µM

Question: For 201T, which relative viability is on record?
Answer: 0.815

Question: A549 was tested. Which relative viability did it give?
Answer: 0.324

Question: For A-427, which relative viability is on record?
Answer: 0.708

Question: For ABC-1, which relative viability is on record?
Answer: 1.08

Question: Which relative viability does the source give for BEN here?
Answer: 1.23

Question: With CAL-12T as the cell line, how does the relative viability read?
Answer: 0.61

Question: How did the relative viability turn out when COR-L23 was run?
Answer: 0.336

Question: For COR-L 105, which relative viability is on record?
Answer: 0.645

Question: Which relative viability does the source give for Calu-6 here?
Answer: 0.421

Question: For ChaGo-K-1, which relative viability is on record?
Answer: 0.319

Question: With EBC-1 as the cell line, how does the relative viability read?
Answer: 0.73

Question: With EKVX as the cell line, how does the relative viability read?
Answer: 0.769

Question: For EMC-BAC-2, which relative viability is on record?
Answer: 0.401

Question: How did the relative viability turn out when EPLC-272H was run?
Answer: 1.01

Question: How did the relative viability turn out when H3255 was run?
Answer: 0.523

Question: How did the relative viability turn out when HARA was run?
Answer: 0.701

Question: For HCC-15, which relative viability is on record?
Answer: 0.47

Question: With HCC-44 as the cell line, how does the relative viability read?
Answer: 0.822

Question: How did the relative viability turn out when HCC-78 was run?
Answer: 1.07

Question: How did the relative viability turn out when HCC-366 was run?
Answer: 0.213

Question: HCC-827 was tested. Which relative viability did it give?
Answer: 0.484

Question: How did the relative viability turn out when HOP-62 was run?
Answer: 0.189

Question: For IA-LM, which relative viability is on record?
Answer: 0.85

Question: Which relative viability does the source give for LC-2-ad here?
Answer: 0.562

Question: NCI-H520 was tested. Which relative viability did it give?
Answer: 0.276

Question: NCI-H522 was tested. Which relative viability did it give?
Answer: 0.745

Question: With NCI-H661 as the cell line, how does the relative viability read?
Answer: 0.715

Question: NCI-H1299 was tested. Which relative viability did it give?
Answer: 0.941

Question: With NCI-H1648 as the cell line, how does the relative viability read?
Answer: 0.502

Question: How did the relative viability turn out when NCI-H1650 was run?
Answer: 0.763

Question: For NCI-H1703, which relative viability is on record?
Answer: 0.875

Question: NCI-H2009 was tested. Which relative viability did it give?
Answer: 0.604

Question: NCI-H2023 was tested. Which relative viability did it give?
Answer: 0.282

Question: NCI-H2228 was tested. Which relative viability did it give?
Answer: 0.483

Question: NCI-H2342 was tested. Which relative viability did it give?
Answer: 0.372

Question: Which relative viability does the source give for SK-LU-1 here?
Answer: 0.502

Question: Which relative viability does the source give for SK-MES-1 here?
Answer: 0.406

Question: For SW 1573, which relative viability is on record?
Answer: 0.471

Question: Which relative viability does the source give for UMC-11 here?
Answer: 0.31

Same assay, conditions: first compound 316.23 µM

Question: 201T was tested. Which relative viability did it give?
Answer: 0.775

Question: A549 was tested. Which relative viability did it give?
Answer: 0.269

Question: For A-427, which relative viability is on record?
Answer: 0.625

Question: Which relative viability does the source give for ABC-1 here?
Answer: 0.218

Question: How did the relative viability turn out when BEN was run?
Answer: 1.1

Question: CAL-12T was tested. Which relative viability did it give?
Answer: 0.611

Question: COR-L23 was tested. Which relative viability did it give?
Answer: 0.231

Question: COR-L 105 was tested. Which relative viability did it give?
Answer: 0.725

Question: How did the relative viability turn out when Calu-6 was run?
Answer: 0.48

Question: For ChaGo-K-1, which relative viability is on record?
Answer: 0.26

Question: Which relative viability does the source give for EBC-1 here?
Answer: 0.728

Question: How did the relative viability turn out when EKVX was run?
Answer: 0.71

Question: For EMC-BAC-2, which relative viability is on record?
Answer: 0.339

Question: For EPLC-272H, which relative viability is on record?
Answer: 0.922

Question: H3255 was tested. Which relative viability did it give?
Answer: 0.441

Question: HARA was tested. Which relative viability did it give?
Answer: 0.762

Question: How did the relative viability turn out when HCC-15 was run?
Answer: 0.571

Question: With HCC-44 as the cell line, how does the relative viability read?
Answer: 0.947

Question: How did the relative viability turn out when HCC-78 was run?
Answer: 0.979

Question: For HCC-366, which relative viability is on record?
Answer: 0.203

Question: How did the relative viability turn out when HCC-827 was run?
Answer: 0.415

Question: HOP-62 was tested. Which relative viability did it give?
Answer: 0.251

Question: IA-LM was tested. Which relative viability did it give?
Answer: 0.658

Question: With LC-2-ad as the cell line, how does the relative viability read?
Answer: 0.505

Question: For NCI-H520, which relative viability is on record?
Answer: 0.274

Question: With NCI-H522 as the cell line, how does the relative viability read?
Answer: 0.652

Question: Which relative viability does the source give for NCI-H661 here?
Answer: 0.694

Question: Which relative viability does the source give for NCI-H1299 here?
Answer: 0.873

Question: For NCI-H1648, which relative viability is on record?
Answer: 1.07

Question: NCI-H1650 was tested. Which relative viability did it give?
Answer: 0.682

Question: Which relative viability does the source give for NCI-H1703 here?
Answer: 0.506

Question: With NCI-H2009 as the cell line, how does the relative viability read?
Answer: 0.568

Question: With NCI-H2023 as the cell line, how does the relative viability read?
Answer: 0.344

Question: For NCI-H2228, which relative viability is on record?
Answer: 0.802

Question: Which relative viability does the source give for NCI-H2342 here?
Answer: 0.418

Question: With SK-LU-1 as the cell line, how does the relative viability read?
Answer: 0.389

Question: For SK-MES-1, which relative viability is on record?
Answer: 0.381

Question: Which relative viability does the source give for SW 900 here?
Answer: 0.892

Question: With SW 1573 as the cell line, how does the relative viability read?
Answer: 0.381

Question: How did the relative viability turn out when UMC-11 was run?
Answer: 0.332

Same assay, conditions: first compound 1000 µM

Question: How did the relative viability turn out when 201T was run?
Answer: 0.822

Question: How did the relative viability turn out when A549 was run?
Answer: 0.368

Question: With A-427 as the cell line, how does the relative viability read?
Answer: 0.447

Question: Which relative viability does the source give for ABC-1 here?
Answer: 0.36

Question: BEN was tested. Which relative viability did it give?
Answer: 0.708

Question: For CAL-12T, which relative viability is on record?
Answer: 0.744

Question: For COR-L23, which relative viability is on record?
Answer: 0.254

Question: With COR-L 105 as the cell line, how does the relative viability read?
Answer: 0.694

Question: Calu-6 was tested. Which relative viability did it give?
Answer: 0.467

Question: How did the relative viability turn out when ChaGo-K-1 was run?
Answer: 0.33

Question: How did the relative viability turn out when EBC-1 was run?
Answer: 0.721

Question: EKVX was tested. Which relative viability did it give?
Answer: 0.683

Question: EMC-BAC-2 was tested. Which relative viability did it give?
Answer: 0.361

Question: With EPLC-272H as the cell line, how does the relative viability read?
Answer: 0.877

Question: H3255 was tested. Which relative viability did it give?
Answer: 0.402

Question: For HARA, which relative viability is on record?
Answer: 1.01

Question: With HCC-15 as the cell line, how does the relative viability read?
Answer: 0.585

Question: HCC-44 was tested. Which relative viability did it give?
Answer: 0.929

Question: HCC-78 was tested. Which relative viability did it give?
Answer: 0.443

Question: How did the relative viability turn out when HCC-366 was run?
Answer: 0.213

Question: With HCC-827 as the cell line, how does the relative viability read?
Answer: 0.424

Question: Which relative viability does the source give for HOP-62 here?
Answer: 0.221

Question: How did the relative viability turn out when IA-LM was run?
Answer: 0.917

Question: How did the relative viability turn out when LC-2-ad was run?
Answer: 0.587

Question: NCI-H520 was tested. Which relative viability did it give?
Answer: 0.259

Question: With NCI-H522 as the cell line, how does the relative viability read?
Answer: 0.698

Question: With NCI-H661 as the cell line, how does the relative viability read?
Answer: 0.711

Question: NCI-H1299 was tested. Which relative viability did it give?
Answer: 0.933

Question: For NCI-H1648, which relative viability is on record?
Answer: 1.04

Question: How did the relative viability turn out when NCI-H1650 was run?
Answer: 0.59

Question: With NCI-H1703 as the cell line, how does the relative viability read?
Answer: 0.521

Question: For NCI-H2009, which relative viability is on record?
Answer: 0.705

Question: How did the relative viability turn out when NCI-H2023 was run?
Answer: 0.31

Question: With NCI-H2228 as the cell line, how does the relative viability read?
Answer: 0.578

Question: How did the relative viability turn out when NCI-H2342 was run?
Answer: 0.358

Question: SK-LU-1 was tested. Which relative viability did it give?
Answer: 0.398

Question: With SK-MES-1 as the cell line, how does the relative viability read?
Answer: 0.363

Question: For SW 900, which relative viability is on record?
Answer: 0.917

Question: SW 1573 was tested. Which relative viability did it give?
Answer: 0.352

Question: UMC-11 was tested. Which relative viability did it give?
Answer: 0.276
